Assay results reported in patent US20240050510A1, “COMBINATION THERAPY COMPRISING UNCARIA FOR TREATING ANXIETY AND DEPRESSION” (The Open University, priority 2020, published 2024).

Assays:
[1] = literature; cited from earlier work
[2] = system: BDNF; assay: Hippocampal BDNF levels by sandwich ELISA; type: in vivo, mice; conditions: 3-week treatment (FIG. 3B), compared to saline
Method: Animals. ICR outbred mice (Envigo RMS (Harlen), Israel) were kept in the vivarium of the Psychobiological laboratory of the Open University, […] Medical Center, Jerusalem. Mice were kept on a reversed 12-hour light/dark cycle and given ad libitum access to food and water. All experiments were performed during the dark phase under red light (7:00-19:00). All experiments were approved by the Committee for animal care and use according to the NIH guidelines. Drugs administration. […] Assessment of BDNF levels. Hippocampus tissue samples are prepared as previously described ([…]., et al., European neuropsychopharmacology, 2006. 16(5): p. 329-339). Briefly, tissues were homogenized in cold extraction Tris-buffer and then acidified with 0.1 M HCl (pH 3.0) for 15 min at room temperature. Homogenates were neutralized with 0.1 M NaOH (pH 7.6) and centrifuged in a microcentrifuge at 7,000 g for 10 min. BDNF levels in the supernatant were evaluated using sandwich ELISA as previously described (Baker-Herman, T. L., et al., Nat Neurosci, 2004. 7(1): p. 48-55).

[3] = system: ICR outbred mice; assay: Forced Swim Test (FST), depressive-like behavior; type: in vivo; conditions: 3 week treatment after 30 days UCMS (FIG. 5B); in comparison to the NHT and Saline groups
Method: Animals. ICR outbred mice (Envigo RMS (Harlen), Israel) were kept in the vivarium of the Psychobiological laboratory of the Open University, […] Medical Center, Jerusalem. Mice were kept on a reversed 12-hour light/dark cycle and given ad libitum access to food and water. All experiments were performed during the dark phase under red light (7:00-19:00). All experiments were approved by the Committee for animal care and use according to the NIH guidelines. Drugs administration. […] Unpredictable chronic mild stress (UCMS). Mice were exposed to UCMS for 4 weeks at the age of 4 weeks as previously described (Malkoff, A., et al. (2008) J Neural Transm 115, 1563-1571). Forced Swim Test (FST). […] Depression like behavior was measured as the time the animal spent floated without moving, and swimming was defined as the time the animal spent engaged in active swimming or struggle movement. Effects were evaluated in independent mice groups following 1 and 3 weeks of treatment. The test was recorded by Viewer III (BIOB SERVE) software. […] Data was analyzed using a one-way ANOVA with Treatment as a between subject variable, performed on the time spent in the center area in the Novel Open Field and the time spent in the open arms for anxiety like behavior, and depressive like behavior was measured as the time the animal spent floating without moving. […]

[4] = system: ICR outbred mice; assay: Open field test (OFT), anxiety-like behavior; type: in vivo; conditions: 1-week treatment (FIG. 1C)
Method: (§1) Animals. ICR outbred mice (Envigo RMS (Harlen), Israel) were kept in the vivarium of the Psychobiological laboratory of the Open University, […] Medical Center, Jerusalem. Mice were kept on a reversed 12-hour light/dark cycle and given ad libitum access to food and water. All experiments were performed during the dark phase under red light (7:00-19:00). All experiments were approved by the Committee for animal care and use according to the NIH guidelines. Drugs administration. […] Unpredictable chronic mild stress (UCMS). Mice were exposed to UCMS for 4 weeks at the age of 4 weeks as previously described (Malkoff, A., et al. (2008) J Neural Transm 115, 1563-1571). Elevated plus-maze (EPM) and Open field test (OFT). Anxiety-like behavior was assessed using EPM and OFT as previously described ([…]. (2009) Brain Res 1256, 138-148). Locomotion was assessed using the OFT and expressed as the percentage of time that the mouse moved in a velocity above 0.1 pixel/sec.

[5] = system: ICR outbred mice; assay: Elevated plus-maze (EPM), anxiety-like behavior in UCMS-stressed mice; type: in vivo; conditions: 3-week treatment (FIG. 2), compared to saline
Method: as §1, with “pixel/sec. Data analysis and interpretation of results. Data was analyzed using a one-way ANOVA with Treatment as a between subject variable, performed on the time spent in the center area in the Novel Open Field and the time spent in the open arms for anxiety like behavior, and depressive like behavior was measured as the time the animal spent floating without moving. […]” for “pixel/sec.”

[6] = system: ICR outbred mice; assay: Novel Open Field (NOF), anxiety-like behavior; type: in vivo; conditions: 3 weeks of treatment after 30 days UCMS (FIG. 4B); in comparison to the Saline and UR groups
Method: Animals. ICR outbred mice (Envigo RMS (Harlen), Israel) were kept in the vivarium of the Psychobiological laboratory of the Open University, […] Medical Center, Jerusalem. Mice were kept on a reversed 12-hour light/dark cycle and given ad libitum access to food and water. All experiments were performed during the dark phase under red light (7:00-19:00). All experiments were approved by the Committee for animal care and use according to the NIH guidelines. Drugs administration. […] Unpredictable chronic mild stress (UCMS). Mice were exposed to UCMS for 4 weeks at the age of 4 weeks as previously described (Malkoff, A., et al. (2008) J Neural Transm 115, 1563-1571). Novel Open Field (NOF). The novel open field consists of an empty square arena (40×40×40 cm) divided into 36 identical squares and surrounded by Perspex opaque walls. […] Mice were placed in the center of the arena and their behavior was video recorded for a total of 5 min, and later coded by an observer blind to the mice's treatment. Anxiety-like behavior was measured by the time spent in the peripheral area, i.e., the peripheral ring of the arena (6.67 cm from each wall, Walsh & Cummins, (1976) Psychological Bulletin, 83 (3), 482-504). […] Effects were evaluated in independent mice groups following 1 and 3 weeks of treatment. […]

SMILES | isolation-induced increased aggressiveness and decreased sociality [1] | hippocampal BDNF levels [2] | time floated-immobile in the FST (depressive-like behavior) [3] | anxiety-like behavior in the OFT [4] | anxiety-like behavior in the EPM (time spent in the open arms) [5] | time in the center of the arena, novel open field [6]
C/C=C1/CN2CCc3c([nH]c4ccccc34)[C@@H]2C[C@@H]1/C(=C/OC)C(=O)OC [GM, geissoschizine methyl ether] | ameliorated | – | – | – | – | –
CN(C)CCC[C@@]1(c2ccc(F)cc2)OCc2cc(C#N)ccc21 [escitalopram] | – | increased BDNF levels | spent significantly less time floated-immobile | ineffective | reduced anxiety-like behavior | spent significantly more time in the center of the arena
